In brackets after ≈: the same amount, converted by molar mass. Starred links: 1 amine or outer side, 2 acyl side, 3 side chain; linkers in the order of their positions; H or OH if unused. Positions of bridges follow the written chain, without caps; N, C: chain ends. Non-standard residues stand in square brackets, D forms with d. Residues, ends and D or L forms follow the SMILES beside them. *: point of attachment. pTerphenylCO(4''-OnC5H11) = CCCCCOc1ccc(-c2ccc(-c3ccc(C(=O)*)cc3)cc2)cc1; Pro(cis-4-guanidino) = NC(N)=N[C@@H]1CN[C@H](C(=O)O)C1; hTyr(3-COCH2NH2) = NCC(=O)c1cc(CC[C@H](N)C(=O)O)ccc1O; X7 = CCCCCCCCOc1ccc(-c2ccc(-c3ccc(C(=O)*)cc3)cc2)cc1; X3 = CCCCCCCCOc1ccc(N2CCN(c3ccc(C(=O)*)cc3)CC2)cc1; X5 = CCCCCCCCN1CCN(c2ccc(-c3ccc(C(=O)*)cc3)cc2)CC1; X1 = NCC(=O)Nc1cc(CC[C@H](N[*:1])C(=O)[*:2])ccc1O; X4 = NCCC(=O)c1cc(CC[C@H](N[*:1])C(=O)[*:2])ccc1O; X6 = NCC(=O)[C@H]1C[C@@H](C(=O)[*:2])N([*:1])C1; X2 = NC(N)=N[C@H]1CC(C(=O)[*:2])N([*:1])C1; Pro(4S-NH2) = N[C@@H]1CN[C@H](C(=O)O)C1; Hyp = O=C(O)[C@@H]1C[C@@H](O)CN1; Orn = NCCC[C@H](N)C(=O)O
Columns and labels:
Aspergillus niger = test: Antifungal activity against Aspergillus niger ATCC 16404; type: functional
Kluyveromyces marxianus = test: Antifungal activity against Candida kefyr ATCC 28838; type: functional
Candida albicans [1] = test: Antifungal activity against Candida albicans 579A; type: functional
Candida albicans [2] = test: Antifungal activity against Candida albicans ATCC 10231; type: functional
Candida albicans [3] = test: Antifungal activity against Candida albicans ATCC 38247; type: functional
Candida albicans [4] = test: Antifungal activity against Candida albicans ATCC 62376; type: functional
Candida albicans [5] = test: Antifungal activity against Candida albicans CAF-2; type: functional
Candida albicans [6] = test: Antifungal activity against Candida albicans CCH 442; type: functional
Naganishia albida = test: Antifungal activity against Cryptococcus albidus ATCC 34140; type: functional
Nakaseomyces glabratus = test: Antifungal activity against Torulopsis glabrata ATCC 15545; type: functional
[Candida] zeylanoides = Antifungal activity against Candida zeylanoides NRRL Y-112; type: functional
[7] = Half-life was measured in monkey after an iv dose of 1 mg/kg; type: ADME, organism-based; parameters: dose 1 mg/kg, route intravenous; conditions: cercopithecidae, in vivo
[8] = Plasma clearance for the compound was measured in dog after an iv dose of 1 mg/kg; type: ADME, organism-based, Canis lupus familiaris; parameters: dose 1 mg/kg, route intravenous; conditions: read-out: Clp (converted)
[9] = Area under the curve was measured in monkey after an iv dose of 1 mg/kg; type: ADME, organism-based; parameters: dose 1 mg/kg, route intravenous; conditions: cercopithecidae, in vivo
[10] = Plasma clearance for the compound was measured in rat after an iv dose of 1 mg/kg; type: ADME, organism-based; parameters: dose 1 mg/kg, route intravenous; conditions: read-out: Clp (converted)
[11] = Terminal phase volume of distribution was measured in mouse after an iv dose of 1 mg/kg; type: ADME, organism-based; parameters: dose 1 mg/kg, route intravenous; conditions: in vivo, read-out: Va beta
[12] = Terminal phase volume of distribution was measured in dog after an iv dose of 1 mg/kg; type: ADME, organism-based, Canis lupus familiaris; parameters: dose 1 mg/kg, route intravenous; conditions: in vivo, read-out: Va beta
[13] = Terminal phase volume of distribution was measured in rat after an iv dose of 1 mg/kg; type: ADME, organism-based; parameters: dose 1 mg/kg, route intravenous; conditions: in vivo, read-out: Va beta
[14] = Volume of distribution was measured in mouse after an iv dose of 1 mg/kg; type: ADME, organism-based; parameters: dose 1 mg/kg, route intravenous; conditions: in vivo, read-out: Vv
[15] = Plasma clearance for the compound was measured in monkey after an iv dose of 1 mg/kg; type: ADME, organism-based; parameters: dose 1 mg/kg, route intravenous; conditions: cercopithecidae, read-out: Clp (converted)
[16] = Terminal phase volume of distribution was measured in monkey after an iv dose of 1 mg/kg; type: ADME, organism-based; parameters: dose 1 mg/kg, route intravenous; conditions: cercopithecidae, in vivo, read-out: Va beta
[17] = Volume of distribution was measured in monkey after an iv dose of 1 mg/kg; type: ADME, organism-based; parameters: dose 1 mg/kg, route intravenous; conditions: cercopithecidae, in vivo, read-out: Vv
[18] = Area under the curve was measured in dog after an iv dose of 1 mg/kg; type: ADME, organism-based, Canis lupus familiaris; parameters: dose 1 mg/kg, route intravenous; conditions: in vivo
[19] = Half-life was measured in dog after an iv dose of 1 mg/kg; type: ADME, organism-based, Canis lupus familiaris; parameters: dose 1 mg/kg, route intravenous; conditions: in vivo
[20] = Area under the curve was measured in mouse after an iv dose of 1 mg/kg; type: ADME, organism-based; parameters: dose 1 mg/kg, route intravenous; conditions: in vivo
[21] = Volume of distribution was measured in rat after an iv dose of 1 mg/kg; type: ADME, organism-based; parameters: dose 1 mg/kg, route intravenous; conditions: in vivo, read-out: Vv
[22] = Plasma clearance for the compound was measured in mouse after an iv dose of 1 mg/kg; type: ADME, organism-based; parameters: dose 1 mg/kg, route intravenous; conditions: read-out: Clp (converted)
[23] = Half-life was measured in rat after an iv dose of 1 mg/kg; type: ADME, organism-based; parameters: dose 1 mg/kg, route intravenous; conditions: in vivo
[24] = Volume of distribution was measured in dog after an iv dose of 1 mg/kg; type: ADME, organism-based, Canis lupus familiaris; parameters: dose 1 mg/kg, route intravenous; conditions: in vivo, read-out: Vv
[25] = Half-life was measured in mouse after an iv dose of 1 mg/kg; type: ADME, organism-based; parameters: dose 1 mg/kg, route intravenous; conditions: in vivo
[26] = Area under the curve was measured in rat after an iv dose of 1 mg/kg; type: ADME, organism-based; parameters: dose 1 mg/kg, route intravenous; conditions: in vivo
[27] = Aspergillus niger, ATCC 16404, read-out: MIC
[28] = Kluyveromyces marxianus, ATCC 28838, read-out: MIC
[29] = Candida albicans, read-out: MIC
[30] = Candida albicans, ATCC 10231, read-out: MIC
[31] = Candida albicans, ATCC 38247, read-out: MIC
[32] = Candida albicans, ATCC 62376, read-out: MIC
[33] = Naganishia albida, ATCC 34140, read-out: MIC
[34] = Nakaseomyces glabratus, ATCC 15545, read-out: MIC
[35] = Dujonia zeylanoides, read-out: MIC

Structure (SMILES)	MIC (Aspergillus niger; [27]) [µg/mL]	MIC (Kluyveromyces marxianus; [28]) [µg/mL]	MIC (Candida albicans [1]; [29]) [µg/mL]	MIC (Candida albicans [2]; [30]) [µg/mL]	MIC (Candida albicans [3]; [31]) [µg/mL]	MIC (Candida albicans [4]; [32]) [µg/mL]	MIC (Candida albicans [5]; [29]) [µg/mL]	MIC (Candida albicans [6]; [29]) [µg/mL]	MIC (Naganishia albida; [33]) [µg/mL]	MIC (Nakaseomyces glabratus; [34]) [µg/mL]	MIC ([Candida] zeylanoides; [35]) [µg/mL]	other results
CCCCCCCCOc1ccc(-c2ccc(-c3ccc(C(=O)N[C@H]4CCCNC(=O)[C@@H]5C[C@H](N)CN5C(=O)[C@H]([C@@H](C)O)NC(=O)[C@H](CCc5ccc(O)c(C(=O)CN)c5)NC(=O)[C@@H]5CCCN5C(=O)[C@H]([C@@H](C)O)NC4=O)cc3)cc2)cc1 (X7-[Orn]TP[hTyr(3-COCH2NH2)]T[Pro(4S-NH2)]; lactam 1-C)	25 (≈ 21.8 µM)	0.78 (≈ 0.682 µM)	0.78 (≈ 0.682 µM)	1.56 (≈ 1.36 µM)	0.78 (≈ 0.682 µM)	0.78 (≈ 0.682 µM)	0.1 (≈ 0.0874 µM)	0.78 (≈ 0.682 µM)	12.5 (≈ 10.9 µM)	0.78 (≈ 0.682 µM)	0.78 (≈ 0.682 µM)	
CCCCCOc1ccc(-c2ccc(-c3ccc(C(=O)N[C@H]4CCCNC(=O)C5C[C@H](N=C(N)N)CN5C(=O)[C@H]([C@@H](C)O)NC(=O)[C@H](CCc5ccc(O)c(NC(=O)CN)c5)NC(=O)[C@@H]5C[C@@H](O)CN5C(=O)[C@H]([C@@H](C)O)NC4=O)cc3)cc2)cc1 (stereo not given in full) ({pTerphenylCO(4''-OnC5H11)}-[Orn]T[Hyp][X1]T[X2]; lactam 1-C)												half-life [7]: 3.3 h; clearance [8]: 0.5 mL/min/kg; AUC [9]: 6550 ng·h/mL; clearance [10]: 2.33 mL/min/kg; Vd [11]: 1 L/kg; Vd [12]: 1.3 L/kg; Vd [13]: 2.2 L/kg; Vd [14]: 0.4 L/kg; clearance [15]: 2.83 mL/min/kg; Vd [16]: 0.9 L/kg; Vd [17]: 0.2 L/kg; AUC [18]: 36400 ng·h/mL; half-life [19]: 30.4 h; AUC [20]: 16800 ng·h/mL; Vd [21]: 0.6 L/kg; clearance [22]: 1 mL/min/kg; half-life [23]: 7.4 h; Vd [24]: 0.6 L/kg; half-life [25]: 11.5 h; AUC [26]: 11700 ng·h/mL
CCCCCOc1ccc(-c2ccc(-c3ccc(C(=O)N[C@H]4CCCNC(=O)[C@@H]5C[C@H](N=C(N)N)CN5C(=O)[C@H]([C@@H](C)O)NC(=O)[C@H](CCc5ccc(O)c(C(=O)CN)c5)NC(=O)[C@@H]5C[C@@H](O)CN5C(=O)[C@H]([C@@H](C)O)NC4=O)cc3)cc2)cc1 (stereo in doubt; 4)												MIC (Aspergillus niger): 6.25 µg/mL (≈ 5.39 µM); MIC (Kluyveromyces marxianus): 0.78 µg/mL (≈ 0.672 µM); MIC (Candida albicans [1]): 0.39 µg/mL (≈ 0.336 µM); MIC (Candida albicans [2]): 0.78 µg/mL (≈ 0.672 µM); MIC (Candida albicans [3]): 0.78 µg/mL (≈ 0.672 µM); MIC (Candida albicans [4]): 0.39 µg/mL (≈ 0.336 µM); MIC (Candida albicans [5]): 0.39 µg/mL (≈ 0.336 µM); MIC (Candida albicans [6]): 0.78 µg/mL (≈ 0.672 µM); MIC (Naganishia albida): 6.25 µg/mL (≈ 5.39 µM); MIC (Nakaseomyces glabratus): 1.56 µg/mL (≈ 1.34 µM); MIC ([Candida] zeylanoides): 1.56 µg/mL (≈ 1.34 µM)
CCCCCCCCN1CCN(c2ccc(-c3ccc(C(=O)N[C@H]4CCCNC(=O)[C@@H]5C[C@H](C(=O)CN)CN5C(=O)[C@H]([C@@H](C)O)NC(=O)[C@H](CCc5ccc(O)c(C(=O)CN)c5)NC(=O)[C@@H]5CCCN5C(=O)[C@H]([C@@H](C)O)NC4=O)cc3)cc2)CC1 (X5-[Orn]TP[hTyr(3-COCH2NH2)]T[X6]; lactam 1-C)	25 (≈ 21.2 µM)	1.56 (≈ 1.32 µM)	0.39 (≈ 0.331 µM)	0.39 (≈ 0.331 µM)	0.78 (≈ 0.662 µM)	0.39 (≈ 0.331 µM)	0.1 (≈ 0.0849 µM)	0.39 (≈ 0.331 µM)	25 (≈ 21.2 µM)	1.56 (≈ 1.32 µM)	0.2 (≈ 0.17 µM)	
CCCCCCCCOc1ccc(N2CCN(c3ccc(C(=O)N[C@H]4CCCNC(=O)[C@@H]5C[C@H](C(=O)CN)CN5C(=O)[C@H]([C@@H](C)O)NC(=O)[C@H](CCc5ccc(O)c(C(=O)CN)c5)NC(=O)[C@@H]5C[C@@H](O)CN5C(=O)[C@H]([C@@H](C)O)NC4=O)cc3)CC2)cc1 (X3-[Orn]T[Hyp][hTyr(3-COCH2NH2)]T[X6]; lactam 1-C)	12.5 (≈ 10.3 µM)	1.56 (≈ 1.29 µM)	0.78 (≈ 0.644 µM)	0.78 (≈ 0.644 µM)	0.39 (≈ 0.322 µM)	0.39 (≈ 0.322 µM)	0.1 (≈ 0.0826 µM)	0.78 (≈ 0.644 µM)	12.5 (≈ 10.3 µM)	1.56 (≈ 1.29 µM)	1.56 (≈ 1.29 µM)	
CCCCCOc1ccc(-c2ccc(-c3ccc(C(=O)N[C@H]4CCCNC(=O)[C@@H]5C[C@H](N=C(N)N)CN5C(=O)[C@H]([C@@H](C)O)NC(=O)[C@H](CCc5ccc(O)c(C(=O)CCN)c5)NC(=O)[C@@H]5C[C@@H](O)CN5C(=O)[C@H]([C@@H](C)O)NC4=O)cc3)cc2)cc1 ({pTerphenylCO(4''-OnC5H11)}-[Orn]T[Hyp][X4]T[Pro(cis-4-guanidino)]; lactam 1-C)	6.25 (≈ 5.32 µM)	1.56 (≈ 1.33 µM)	0.2 (≈ 0.17 µM)	0.39 (≈ 0.332 µM)	0.2 (≈ 0.17 µM)	0.2 (≈ 0.17 µM)	0.2 (≈ 0.17 µM)	0.2 (≈ 0.17 µM)	12.5 (≈ 10.6 µM)	1.56 (≈ 1.33 µM)	0.39 (≈ 0.332 µM)	

Source: ChEMBL document CHEMBL1136559, “Discovery, SAR, synthesis, pharmacokinetic and biochemical characterization of A-192411: a novel fungicidal lipopeptide-(I)” (Bioorg Med Chem Lett, 2003)
